{"source": "patent US10004233B2", "about": "“Relating to treatment of water” (BWA WATER ADDITIVES UK LIMITED, priority 2015, dated 2018)", "key": {"[1]": {"test_system": "Enterobacter aerogenes", "test": "Log10 reduction of viable facultative anaerobic bacteria in high-TDS phosphate buffer suspension (anaerobic acid producing media vials)", "type": "cell-based", "conditions": "TDS 30,000 mg l^−1, 8 = complete kill", "experimental": "(§1) Aqueous systems inoculated with anaerobe and facultative anaerobe culture and having a total dissolved solids (TDS) concentration of 30,000 mg l^−1 were prepared and treated with treatment agents comprising: (a) a phosphonium compound and (b) an oxazolidine compound. The phosphonium compound (a) used was tri n-butyl n-tetradecyl phosphonium chloride (TTPC). The oxazolidine compound (b) was 4,4-dimethyloxazolidine (DMO).\n(§2) A suspension of Desulfovibrio vulgaris plus Enterobacter aerogenes bacteria containing from 1×10^5 to 1×10^6 cells/mL was prepared in sterile pH 8 phosphate buffer containing sodium chloride to give the desired total dissolved solids (TDS) concentration. Aliquots of this suspension were dosed with the indicated concentrations of the compounds (a) and (b) with the concentrations being measured as ppm active. The mixtures were allowed to stand at room temperature. At the designated contact times, each mixture was sampled to determine the total number of viable cells of both Desulfovibrio vulgaris and Enterobacter aerogenes by serial 10-fold dilution into API RP 38 media vials and anaerobic acid producing media vials, respectively. The vials were incubated at 37° C. for 72 hours. Results were recorded as log10 reduction in the viable count versus the control.\n(§3) The efficacy of the treatment agents was evaluated by measuring the Log10 Reduction of the anaerobic bacterium Desulfovibrio vulgaris and the facultative anaerobic bacterium Enterobacter aerogenes after contact times of 1 hour, 4 hours and 24 hours as detailed in Table 1. For TTPC the stated ppm value relates to the amount of TTPC added (active). For the 4,4-dimethyloxazolidine the stated ppm relates to the amount of 4,4-dimethyloxazolidine added (active)."}, "[2]": {"test_system": "Desulfovibrio vulgaris", "test": "Log10 reduction of viable anaerobic bacteria in high-TDS phosphate buffer suspension (API RP 38 media vials)", "type": "cell-based", "conditions": "TDS 30,000 mg l^−1, 5 = complete kill", "experimental": "as §1, §2, §3"}, "[3]": {"conditions": "TTPC 3.125 ppm active, contact time 1 hour"}, "[4]": {"conditions": "TTPC 3.125 ppm active, contact time 4 hours"}, "[5]": {"conditions": "TTPC 3.125 ppm active, contact time 24 hours"}, "[6]": {"conditions": "TTPC 6.25 ppm active, contact time 1 hour"}, "[7]": {"conditions": "TTPC 6.25 ppm active, contact time 4 hours"}, "[8]": {"conditions": "TTPC 6.25 ppm active, contact time 24 hours"}, "[9]": {"conditions": "DMO 40 ppm active, contact time 1 hour"}, "[10]": {"conditions": "DMO 40 ppm active, contact time 4 hours"}, "[11]": {"conditions": "DMO 40 ppm active, contact time 24 hours"}, "[12]": {"conditions": "DMO 80 ppm active, contact time 1 hour"}, "[13]": {"conditions": "DMO 80 ppm active, contact time 4 hours"}, "[14]": {"conditions": "DMO 80 ppm active, contact time 24 hours"}}, "data": [{"smiles": "CCCCCCCCCCCCCC[P+](CCCC)(CCCC)CCCC.[Cl-]", "note": "[TTPC, tri n-butyl n-tetradecyl phosphonium chloride]", "values": [{"measurement": "Log10 Reduction Facultative Anaerobes", "setting": "[1]; [3]", "value": 1}, {"measurement": "Log10 Reduction Facultative Anaerobes", "setting": "[1]; [4]", "value": 2}, {"measurement": "Log10 Reduction Facultative Anaerobes", "setting": "[1]; [5]", "value": 4}, {"measurement": "Log10 Reduction Facultative Anaerobes", "setting": "[1]; [6]", "value": 3}, {"measurement": "Log10 Reduction Facultative Anaerobes", "setting": "[1]; [7]", "value": 4}, {"measurement": "Log10 Reduction Facultative Anaerobes", "setting": "[1]; [8]", "value": 5}, {"measurement": "Log10 Reduction Anaerobes", "setting": "[2]; [3]", "value": 1}, {"measurement": "Log10 Reduction Anaerobes", "setting": "[2]; [4]", "value": 5}, {"measurement": "Log10 Reduction Anaerobes", "setting": "[2]; [5]", "value": 5}, {"measurement": "Log10 Reduction Anaerobes", "setting": "[2]; [6]", "value": 2}, {"measurement": "Log10 Reduction Anaerobes", "setting": "[2]; [7]", "value": 5}, {"measurement": "Log10 Reduction Anaerobes", "setting": "[2]; [8]", "value": 5}]}, {"smiles": "CC1(C)COCN1", "note": "[DMO, 4,4-dimethyloxazolidine]", "values": [{"measurement": "Log10 Reduction Facultative Anaerobes", "setting": "[1]; [9]", "value": 0}, {"measurement": "Log10 Reduction Facultative Anaerobes", "setting": "[1]; [10]", "value": 0}, {"measurement": "Log10 Reduction Facultative Anaerobes", "setting": "[1]; [11]", "value": 0}, {"measurement": "Log10 Reduction Facultative Anaerobes", "setting": "[1]; [12]", "value": 0}, {"measurement": "Log10 Reduction Facultative Anaerobes", "setting": "[1]; [13]", "value": 0}, {"measurement": "Log10 Reduction Facultative Anaerobes", "setting": "[1]; [14]", "value": 0}, {"measurement": "Log10 Reduction Anaerobes", "setting": "[2]; [9]", "value": 1}, {"measurement": "Log10 Reduction Anaerobes", "setting": "[2]; [10]", "value": 1}, {"measurement": "Log10 Reduction Anaerobes", "setting": "[2]; [11]", "value": 1}, {"measurement": "Log10 Reduction Anaerobes", "setting": "[2]; [12]", "value": 1}, {"measurement": "Log10 Reduction Anaerobes", "setting": "[2]; [13]", "value": 2}, {"measurement": "Log10 Reduction Anaerobes", "setting": "[2]; [14]", "value": 2}]}]}
